Usually IC50 stands for the point on the concentration scale where inhibition reaches its midpoint.

This passage reports IC50 results from US20070287738A1, “Substituted Cyanopyridines as protein kinase inhibitors” (priority 2006, published 2007).

T1 sequence (Q04759 362-706): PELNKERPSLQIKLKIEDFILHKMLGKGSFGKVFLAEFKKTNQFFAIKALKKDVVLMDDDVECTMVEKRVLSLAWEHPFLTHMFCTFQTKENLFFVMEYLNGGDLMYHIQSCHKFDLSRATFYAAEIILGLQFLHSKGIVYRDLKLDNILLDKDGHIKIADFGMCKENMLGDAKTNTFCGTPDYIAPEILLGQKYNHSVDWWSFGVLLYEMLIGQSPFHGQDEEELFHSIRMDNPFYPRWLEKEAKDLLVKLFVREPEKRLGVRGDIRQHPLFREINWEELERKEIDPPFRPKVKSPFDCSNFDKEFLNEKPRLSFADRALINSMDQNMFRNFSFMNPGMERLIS

One experiment concerns the target T1, purified recombinant active kinase domain of full length PKC theta (amino acids 362-706) (Homo sapiens, UniProt Q04759).
T1 construct: active kinase domain of full length PKC theta (amino acids 362-706)
The experiment in a line: Radioactive kinase assay for inhibition of the active kinase domain (KD) of PKCθ. It is filed as biochemical. Conditions: radioactive (ATP γ P33) assay, average value. The method, then:
A Radioactive Kinase Assay for Inhibition of the Active Kinase Domain (KD) of PKCθ
This assay is based on the phosphorylation of a biotinylated substrate by a kinase utilizing radiolabeled ATP (ATP γ P33). The substrate was a biotinylated peptide with a sequence of biotin-FARKGSLRQ-C(O)NH2. The enzyme was purified recombinant active kinase domain of full length PKC theta (amino acids 362-706). The assay buffer was composed of 100 mM Hepes, pH7.5, 2 mM MgCl2, 20 mM β-glycerophosphate and 0.008% TritonX 100. A reaction mixture of ATP, ATP γ P33 (PerkinElmer), DTT, and the enzyme was prepared in the assay buffer and added to a 96-well polypropylene plate. The compound (diluted in DMSO in a separate 96-well polypropylene plate) was added to the reaction mixture and incubated at room temperature. Following the incubation, the peptide substrate was added to the reaction mixture to initiate the enzymatic reaction. The reaction was terminated with the addition of a stop solution (100 mM EDTA, 0.2% TritonX100, and 20 mM NaHPO4) and transferred from the assay plate to a washed streptavidin-coated 96-well scintiplate (PerkinElmer). The scintiplate was incubated at room temperature, washed in PBS with 0.1% TritonX 100, and counted in the 1450 Microbeta Trilux (Wallac, Version 2.60). Counts were recorded for each well as corrected counts per minute (CCPM). The counts were considered corrected because they were adjusted according to a P33 normalization protocol, which corrects for efficiency and background differences between the instrument detectors (software version 4.40.01).
With `COc1ccc(-c2cncc(C#N)c2Nc2cccc(Cl)c2)cc1OC` [Compound 101, 4-[(3-chlorophenyl)amino]-5-(3,4-dimethoxyphenyl)nicotinonitrile], the IC50 stood at 6.87 µM. The same measure, in the same setting: next, `COc1ccc(-c2cncc(C#N)c2Nc2cc(F)ccc2F)cc1OC` [Compound 104, 4-[(2,5-difluorophenyl)amino]-5-(3,4-dimethoxyphenyl)nicotinonitrile]: 0.6 µM.

The target of another experiment is T2, human PKCθ full length enzyme (Homo sapiens, UniProt Q04759).
T2 construct: human PKCθ full length enzyme (Panvera Cat# P2996); purchased Panvera P2996
T2 sequence (Q04759 whole entry): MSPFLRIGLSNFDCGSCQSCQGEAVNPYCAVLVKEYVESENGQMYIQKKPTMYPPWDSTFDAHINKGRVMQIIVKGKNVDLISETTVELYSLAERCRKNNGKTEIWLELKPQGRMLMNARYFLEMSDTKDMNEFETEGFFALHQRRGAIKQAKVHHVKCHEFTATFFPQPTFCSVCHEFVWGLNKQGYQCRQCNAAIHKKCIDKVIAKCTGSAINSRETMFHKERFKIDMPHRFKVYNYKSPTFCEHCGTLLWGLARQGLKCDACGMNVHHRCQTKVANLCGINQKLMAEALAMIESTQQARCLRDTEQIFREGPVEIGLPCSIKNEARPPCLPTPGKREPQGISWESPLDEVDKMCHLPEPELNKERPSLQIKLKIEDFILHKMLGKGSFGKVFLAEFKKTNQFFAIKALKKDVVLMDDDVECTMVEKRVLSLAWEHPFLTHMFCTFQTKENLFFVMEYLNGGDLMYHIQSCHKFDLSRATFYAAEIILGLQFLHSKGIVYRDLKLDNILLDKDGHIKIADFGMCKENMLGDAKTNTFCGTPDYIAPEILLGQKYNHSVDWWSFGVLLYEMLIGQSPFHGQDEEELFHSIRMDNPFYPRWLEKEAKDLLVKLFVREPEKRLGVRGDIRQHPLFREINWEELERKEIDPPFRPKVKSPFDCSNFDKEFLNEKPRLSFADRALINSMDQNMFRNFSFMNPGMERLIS
The experiment in a line: PKCθ IMAP assay. Conditions: full length enzyme 1 nM; ATP 6 μM; peptide 100 nM; FP readout; average value. It is filed as biochemical. Here is the method:
The materials used include the following: human PKCθ full length enzyme (Panvera Cat# P2996); substrate peptide: 5FAM-RFARKGSLRQKNV-OH (Molecular Devices, RP7032); ATP (Sigma Cat # A2383); DTT (Pierce, 20291); 5× kinase reaction buffer (Molecular Devices, R7209); 5× binding buffer A (Molecular Devices, R7282), 5× binding buffer B (Molecular Devices, R7209); IMAP Beads (Molecular Devices, R7284); and 384-well plates (Corning Costar, 3710).
The reaction buffer was prepared by diluting the 5× stock reaction buffer and adding DTT to obtain a concentration of 3.0 mM. The binding buffer was prepared by diluting the 5× binding buffer A. A master mix solution was prepared using a 90% dilution of the reaction buffer containing 2× ATP (12 uM) and 2× peptide (200 nm). Compounds were diluted in DMSO to 20× of the maximum concentration for the IC50 measurement. 27 μl of the master mix solution for each IC50 curve was added to the first column in a 384-well plate and 3 μl of 20× compound in DMSO was added to each well. The final concentration of compound was 2× and 10% DMSO. DMSO was added to the rest of the master mix to increase the concentration to 10%. 10 μl of the master mix containing 10% DMSO was added to the rest of the wells on the plate except the 2nd column. 20 μl was transferred from the first column to the 2nd column.
The compounds were serially diluted in 2:1 ratio starting from the 2nd column. A 2× (2 nM) PKCθ solution was made in the reaction buffer. 10 μl of the PKCθ solution was added to every well to achieve these final concentrations: PKCθ—1 nM; ATP—6 μM; peptide—100 nM; DMSO—5%. Samples were incubated for 25 minutes at room temperature. The binding reagent was prepared by diluting the beads in 1× binding buffer to 800:1. 50 μl of the binding reagent was added to every well and incubated for 20 minutes. FP was measured using Envision2100 (PerkinElmer Life Sciences). Wells with no ATPs and wells with no enzymes were used as controls.
As for `COc1ccc(-c2cncc(C#N)c2Nc2cccc(NC(C)=O)c2)cc1OC` [Compound 127, N-(3-{[3-cyano-5-(3,4-dimethoxyphenyl)pyridin-4-yl]amino}phenyl) acetamide], the IC50 stood at 0.57 µM. `COc1ccc(-c2cncc(C#N)c2Nc2cccc(N(C)C(C)=O)c2)cc1OC` [Compound 128, N-(3-{[3-cyano-5-(3,4-dimethoxyphenyl)pyridin-4-yl]amino}phenyl)-N-methylacetamide]: half-maximal inhibition (IC50) was put at 35 µM.

Take `COc1ccc(-c2cncc(C#N)c2Nc2cccc(NS(C)(=O)=O)c2)cc1OC` [Compound 129, N-(3-{[3-cyano-5-(3,4-dimethoxyphenyl)pyridin-4-yl]amino}phenyl)methanesulfonamide]: the IC50 is 36 µM. The compound `COc1cccc(Nc2c(C#N)cncc2-c2ccc(N(C)C)cc2)c1` [Compound 130, 5-[4-(dimethylamino)phenyl]-4-[(3-methoxyphenyl)amino]nicotinonitrile] had an IC50 of 0.8 µM. Same read-out and setting: the same measure for `CN(C)c1ccc(-c2cncc(C#N)c2Nc2cccc(F)c2)cc1` [Compound 131, 5-[4-(dimethylamino)phenyl]-4-[(3-fluorophenyl)amino]nicotinonitrile]: 0.71 µM; for `CN(C)c1ccc(-c2cncc(C#N)c2Nc2ccc(C#N)cc2)cc1` [Compound 133, 4-[(4-cyanophenyl)amino]-5-[4-(dimethylamino)phenyl]nicotinonitrile]: 30 µM.

Regarding `CN(C)c1ccc(-c2cncc(C#N)c2Nc2ccc(F)c(F)c2)cc1` [Compound 134, 4-[(3,4-difluorophenyl)amino]-5-[4-(dimethylamino)phenyl]nicotinonitrile], the IC50 was 2.03 µM. For the compound `CN(C)c1ccc(-c2cncc(C#N)c2Nc2cccc([N+](=O)[O-])c2)cc1` [Compound 152, 5-[4-(dimethylamino)phenyl]-4-[(3-nitrophenyl)amino]nicotinonitrile], half-maximal inhibition (IC50) required 7.84 µM. Still for that read-out and setting: the same measure for `COc1cccc(-c2cncc(C#N)c2Nc2cccc([N+](=O)[O-])c2)c1` [Compound 153, 5-(3-methoxyphenyl)-4-[(3-nitrophenyl)amino]nicotinonitrile]: 9.63 µM; for `COc1cccc(Nc2c(C#N)cncc2-c2cccc(OC)c2)c1` [Compound 154, 5-(3-methoxyphenyl)-4-[(3-methoxyphenyl)amino]nicotinonitrile]: 1.73 µM; for `COc1cccc(-c2cncc(C#N)c2Nc2cccc(F)c2)c1` [Compound 155, 4-[(3-fluorophenyl)amino]-5-(3-methoxyphenyl)nicotinonitrile]: 1.57 µM.

For the compound `COc1cccc(-c2cncc(C#N)c2Nc2ccc(C(=O)O)cc2)c1` [Compound 156, 4-{[3-cyano-5-(3-methoxyphenyl)pyridin-4-yl]amino}benzoic acid], the IC50 worked out at 46.4 µM. On the same count and under the same terms, the same measure for `COc1cccc(-c2cncc(C#N)c2Nc2ccc(C#N)cc2)c1` [Compound 157, 4-[(4-cyanophenyl)amino]-5-(3-methoxyphenyl)nicotinonitrile]: greater than 95 µM. Still for that read-out and setting: the same measure for `COc1cccc(-c2cncc(C#N)c2Nc2ccc(F)c(F)c2)c1` [Compound 158, 4-[(3,4-difluorophenyl)amino]-5-(3-methoxyphenyl)nicotinonitrile]: 2.4 µM; for `COc1ccc(-c2cncc(C#N)c2Nc2cccc(O)c2)cc1OC` [Compound 159, 5-(3,4-dimethoxyphenyl)-4-[(3-hydroxyphenyl)amino]nicotinonitrile]: 0.31 µM. Same read-out and setting: the same measure for `COc1ccc(-c2cncc(C#N)c2Nc2cccc(OCCO)c2)cc1OC` [Compound 160, 5-(3,4-dimethoxyphenyl)-4-{[3-(2-hydroxyethoxy)phenyl]amino}nicotinonitrile]: 5.21 µM. Regarding `COc1ccc(-c2cncc(C#N)c2Nc2cccc(OC[C@@H](N)Cc3ccccc3)c2)cc1OC` [Compound 161, 4-[(3-{[(2S)-2-amino-3-phenylpropyl]-oxy}-phenyl)amino]-5-(3,4-dimethoxyphenyl)nicotinonitrile], the IC50 is 0.82 µM.

As for `N#Cc1cncc(-c2cc3cc(C=O)ccc3s2)c1Nc1cc(O)ccc1Cl` [Compound 162, 4-[(2-chloro-5-hydroxyphenyl)amino]-5-(5-formyl-1-benzothein-2-yl)nicotinonitrile], half-maximal inhibition (IC50) required 0.03 µM.

`N#Cc1cncc(-c2cc3cc(CN4CCCCC4)ccc3s2)c1Nc1cc(O)ccc1Cl` [Compound 163, 4-[(2-chloro-5-hydroxyphenyl)amino]-5-[5-(piperidin-1-ylmethyl)-1-benzothien-2-yl]nicotinonitrile] registered an IC50 of 0.03 µM. On the same count and under the same terms, the same measure for `N#Cc1cncc(-c2cc3cc(CN4CCCCC4)ccc3s2)c1Nc1cc(OCCO)ccc1Cl` [Compound 164]: 0.06 µM. Same read-out and setting: next, `Cc1c(N)ccc(Nc2c(C#N)cncc2-c2cc3cc(CN4CCCCC4)ccc3s2)c1C` [Compound 165, 4-[(4-amino-2,3-dimethylphenyl)amino]-5-[5-(piperidin-1-ylmethyl)-1-benzothien-2-yl]nicotinonitrile]: 0.65 µM; `Cc1cc(Nc2c(C#N)cncc2-c2cc3cc(CN4CCCCC4)ccc3s2)ccc1N` [Compound 166, 4-[(4-amino-3-methylphenyl)amino]-5-[5-(piperidin-1-ylmethyl)-1-benzothien-2-yl]nicotinonitrile]: 1.06 µM.

In turn, `COc1ccc(Cl)c(Nc2c(C#N)cncc2-c2cc3cc(CN4CCCCC4)ccc3o2)c1` [Compound 167, 4-[(2-chloro-5-methoxyphenyl)amino]-5-[5-(piperidin-1-ylmethyl)-1-benzofuran-2-yl]nicotinonitrile] registered an IC50 of 0.73 µM.

`Cc1ccc(Cl)c(Nc2c(C#N)cncc2-c2cc3cc(CN4CCCCC4)ccc3o2)c1` [Compound 168, 4-[(2-chloro-5-methylphenyl)amino]-5-[5-(piperidin-1-ylmethyl)-1-benzofuran-2-yl]nicotinonitrile] yielded an IC50 of 2.04 µM. Still for that read-out and setting: the same measure for `N#Cc1cncc(-c2cc3cc(CN4CCCCC4)ccc3o2)c1Nc1cc(O)ccc1Oc1ccccc1` [Compound 169, 4-[(5-hydroxy-2-phenoxyphenyl)amino]-5-[5-(piperidin-1-ylmethyl)-1-benzofuran-2-yl]nicotinonitrile]: 0.65 µM; for `COc1ccc(-c2cncc(C#N)c2NCc2cccc(CN)c2)cc1OC` [Compound 170, 4-{[3-(aminomethyl)benzyl]amino}-5-(3,4-dimethoxyphenyl)nicotinonitrile]: 11.9 µM; for `N#Cc1cncc(-c2cc3cc(CN4CCCCC4)ccc3o2)c1Nc1cc(O)c(Cl)cc1Cl` [Compound 171, 4-[(2,4-dichloro-5-hydroxyphenyl)amino]-5-[5-(piperidin-1-ylmethyl)-1-benzofuran-2-yl]nicotinonitrile]: 0.27 µM.

Turning to `COc1ccc(Nc2c(C#N)cncc2-c2cc3cc(CN4CCCCC4)ccc3o2)c(C)c1` [Compound 172, 4-[(4-methoxy-2-methylphenyl)amino]-5-[5-(piperidin-1-ylmethyl)-1-benzofuran-2-yl]nicotinonitrile], the IC50 came out at 0.16 µM.
